Reference: patent publication US20210276960A1, “INHIBITORS OF TISSUE TRANSGLUTAMINASE 2 (TG2) AND USES THEREOF” (Northwestern University, priority 2020, published 2021)

Columns and labels:
[1] = system: SKOV3 cells adhesion to collagen-1; assay: SKOV3 adhesion to collagen-1 coated wells; assay type: cell-based; details: 25 μM, collagen-1 20 μg/ml
Method: FIG. 13. Top SMIs inhibit cell adhesion to FN. A, Effects of top compounds (25 μM) on SKOV3 cells adhesion to FN. B, Dose-dependent effects (1-25 μM) of TG53 on SKOV3 cell adhesion to FN. […] D, Effects of TG53 (25 μM) on SKOV3 cells adhesion to wells coated with collagen-1 (20 μg/ml). E, Effects of TG53 (25 μM) on SKOV3-control or AS-TG2 cells adhesion to FN. Bars represent means+/−SEM of quadruplicate measurements. * denote p<0.05.
(§1) Cells labeled with calcein AM (Life Technologies, #L3224) were seeded at a density of 4×10^4 cells in 96-well plates pre-coated with FN (5 μg/mL, Sigma, #F1141), and blocked using 1% BSA (Sigma, #A9647) in PBS in the presence of selected compounds diluted at the specified concentrations, in serum free media. After 45 minutes, unattached cells were washed using PBS containing 1 mM MgCl2(Sigma, #M8266) and adherent cells were quantified in a SpectraMaxGeminiXS fluorescence plate reader (Molecular Devices, Palo Alto, Calif.) at 530 nm wavelength. Experiments were performed inquadruplicate and repeated at least twice.

[2] = system: TG2 co-localization with integrin β1, p-FAK, c-Src, p-c-Src in SKOV3 cells; assay: Confocal IF co-localization analysis; assay type: cell-based; details: 1 μM
Method: In order to analyze cell adhesion complex proteins expression and localization upon early attachment, cells were treated as stated above and then seeded onto FN-coated cover slips for 30 minutes at 37° C. Samples were fixed in 4% p-formaldehyde (PFA) and permeabilized with 0.2% Triton-X-100. After blocking, focal contacts were identified by using anti-vinculin antibodies, activation of integrins signaling pathway was assessed by antibodies against phosphorylated focal adhesion kinase (FAK), while actin cytoskeleton was labeled by Alexa Fluor 488-conjugated phalloidin (Life Technologies, #A12379). Nuclei were stained with 1:10000 Hoechst (Thermo Scientific) and specimens were mounted in Prolong Gold anti-fadereagent (Life Technologies). Cells were analyzed by laser scanning using a Nikon A1RGaAsPConfocal Laser Microscope. For co-localization analyses, SKOV3 cells were treated with DMSO (control) or TG53 (1 μM) and plated on FN-coated chamber slides (BD Biosciences) for 72 hrs. […] Colocalization percentage was calculated by normalizing the pixels corresponding to Cy5 or Alexa Fluor 488 emissions to DAPI pixels in the same cell, followed by merging area of green with area of red and determination of average of overlap areas. A Student' t test was calculated to determine statistical significance of differences between drug treated and DMSO control treated cells.

OVCAR5 cells = assay: Sphere forming assay after priming, with paclitaxel; assay type: cell-based, human; details: priming with 1 μM, with 5 nM PTX
Method: After 72 h priming with either 1 μM MT-4, TG53 or vehicle (DMSO), 150 OVCAR5 cells were seeded in 60 mm dishes and treated or not with paclitaxel (PTX, Sigma). Colonies were allowed to form over 10 days, fixed in 4% PFA and stained with 0.4% crystal violet (MP Biomedicals). Colonies were counted, and analysis was performed using the ImageJ software ([…]).Spheroid cultures were carried out as previously described(Condello et al., 2015). Briefly, OC cells were resuspended in Mammocult complete medium (StemCell Technologies) supplemented with Mammocult Proliferation Supplements, heparin and hydrocortisone (StemCell Technologies) and seeded at a concentration of 10,000 cells/well in 96-well ultra-low attachment plates (Corning, Corning, N.Y., USA). After treatment with DMSO (control) or TG53 (1 μM) for 7 days, spheroids were counted and quantified by the CCK-8 assay. All assays were performed in four replicates and were repeated. For priming before PTX treatment, cells were manipulated as described for CFU assay and then seeded in 6-well low-attachment plate (Corning, #3473) at 7000 cells/mL/well and allowed to form spheroids in complete Mammocult media. Spheres were counted after ten days from 4 replicate wells. Two independent experiments were performed.

[3] = system: OVCAR433 cells adhesion onto LP9 monolayers; assay: Cell adhesion to LP9 mesothelial monolayers, OVCAR433; assay type: cell-based; details: at concentrations >10 μM
Method: LP9 mesothelial cells added to clear-bottom 96-well plate at 12,000 cells/well were grown to confluency over 48 hours (h). OC cells were labeled with calcein AM and seeded at a density of 4×10^4 cells to monolayers of mesothelial cells and incubated for 1 h. Non-adherent cells were removed by washing with PBS.

[4] = system: OVCAR433 cells adhesion to FN; assay: Solid phase adhesion assay to FN, OVCAR433; assay type: cell-based; parameters: inhibition of adhesion to FN relative to TG53: dose or concentration left out as unconfirmed
Method: as §1

Structure (SMILES) | adhesion to collagen [1] | FAK and Src phosphorylation [2] | colocalization of TG2 with integrin β1, pFAK, c-Src and pSrc [2] | cell proliferation as spheres (OVCAR5 cells) | OVCAR433 adhesion to the LP9 layer [3] | inhibition of adhesion to FN relative to TG53 [4] | cell adhesion to FN, dose dependence ([4]; 2 μM-25 μM)
COc1ccc(Cl)cc1C(=O)Nc1ccc(Nc2nc(C)cc(N(C)C)n2)cc1 [TG53] | did not inhibit | marked decrease | significant decrease | – | – | – | –
Cc1cc(N(C)C)nc(Nc2ccc(NC(=O)Cc3ccccc3)cc2)n1 [MT-4] | – | – | – | more potently than PTX alone or PTX and TG53 | dose-dependent inhibitory effect | more active than TG53 | dose-dependent inhibitory effect
